Measurements from patent publication US20110124741A1, “RADIOSENSITIZER COMPOSITIONS COMPRISING SCHISANDRA CHINENSIS(TURCZ.)BAILL AND METHODS FOR USE” (ETEN BIOTECHNOLOGY LTD., CO., priority 2009, published 2011).

Experiments:
[1] = tested on: HepG2 cells; assay: Western blot of apoptosis-related proteins (Bcl-2, p21, caspase 9 cleaved form, caspase 3 cleaved form); assay type: cell-based, human; conditions: 12 μg/ml in combination with 8 Gy
Procedure: HepG2 cells were seeded in 6-cm dish (2.5×10^5 cells/dish) for 24 hours of incubation. […] The cells were exposed at 8Gy of radiation (Linear accelerator, Philips SL-18), and incubated for another 48 hours. After collection, the cells were washed by PBS for three times, and then centrifuged at 360×g for 5 min. After removing the supernatant, 120 μl CelLytic-M (Sigma) and 1 μl Protease Inhibitor Cocktail (Sigma) were added into the pellet to suspend the cells and then the suspension was incubated at 4° C. for 30 min. The total protein was collected from the supernatant by centrifugation at 27210×g for 10 min.
[…] protein was loaded to run an SDS-PAGE. The gel was then transferred to PVDF and immersed into TTBS solution (2.42 g Tris base/8 g NaCl/0.1% Tween-20/per liter) containing 5% […] milk for blocking. The membrane was reacted with each primary antibody against p21, Bcl-2, caspase 9 (cleaved form), caspase 3 (cleaved form) and β-actin overnight at 4° C. After the reaction, the membrane was washed by TTBS solution three times, and then reacted with appropriate secondary antibody for another 30-min incubation. […] The bands were quantified by GE ImageMaster 2D Platinum Software. […]
The expression level of apoptosis protein in HepG2 was also detected by western blot. […]

[2] = tested on: HepG2 cells; assay: Annexin V-FITC/PI staining apoptosis assay by flow cytometry, with 8 Gy radiation; assay type: cell-based, human
Description: Annexin V is a 35-36 kDa Ca2+ dependent phospholipid-binding protein that has a high affinity for the membrane phospholipid phosphatidylserine (PS), and binds to cells with exposed PS. Since externalization of PS occurs in the earlier stages of apoptosis, Annexin V staining can identify apoptosis at an earlier stage than assays based on nuclear changes such as DNA fragmentation. A vital dye such as propidium iodide (PI) is typically used in conjunction with Annexin V to identify the viability of the cells. For example, cells that are considered viable are Annexin V and PI negative; cells that are in early apoptosis are Annexin V positive and PI negative; and cells that are in late apoptosis or already dead are both Annexin V and PI positive, wherein the membranes of dead and damaged cells are permeable to PI. The Annexin V staining assay was performed by Annexin V-FITC-Kit purchased from Beckman Coulter, Inc (U.S.A). The protocol was conducted according to the manufacturing manuscript.
HepG2 cells were seeded in 6-cm dish (2.5×10^5 cells/dish) for 24 hours of incubation. Various concentration of ES800 (40 or 80 μg/ml) were added into the culture medium, and then incubated for another 24 hours, wherein 0.008% DMSO was added to the control group. The cells were exposed at 8 Gy of radiation (Linear accelerator, Philips SL-18), and incubated for another 48 hours. After collection, the cells were washed by pre-cold PBS and centrifuged at 500×g. The supernatant was removed and the cells were re-suspended with binding buffer. 1 μl Annexin V-FITC solution and 5 μl PI solution were added into the cell suspension and reacted away from light on ice for 15 min. Finally, 400 μl pre-cold binding buffer was added and the samples were analyzed by flow cytometer within 30 min. The percentages of Annexin V^+ and PI^+/− double staining cells were plotted in FIG. 2.
HepG2 cells were seeded in 6-well plate (2.5×10^5 cells/well) for 24 hours of incubation. Various concentrations of ES800 (40 or 80 μg/ml) and Schisandrin B (12 or 24 μg/ml) were added into the culture medium, and then incubated for another 2 hours, wherein control group was added 0.008% DMSO. The cells were exposed at 8 Gy of radiation (Linear accelerator, Philips SL-18), and incubated for another 70 hours. After collection, the cells were washed by pre-cold PBS and centrifuged at 500×g. Following removing the supernatant, the cells were suspended with binding buffer. 1 μl Annexin V-FITC solution and 5 μl PI solution were added into the suspension and the mixture was reacted away from light on ice for 15 min. Finally, 400 μl pre-cold binding buffer was added and the samples were analyzed by flow cytometer within 30 min. The percentages of Annexin V^+ and PI^+/− double staining cells were plotted in FIG. 7.

Compound: COc1cc2c(c(OC)c1OC)-c1c(cc3c(c1OC)OCO3)CC(C)C(C)C2 (centres unmarked) [Schisandrin B]
- expression level of caspase 3 (cleaved form), compared with radiation alone (FIG. 8) [1]: significantly higher
- apoptosis ratio of HepG2, compared with radiation of 8 Gy alone (FIG. 7) ([2]; 24 μg/ml in combination with 8 Gy, 2 h pre-incubation, 70 h after radiation): significantly higher
- apoptosis ratio of HepG2, compared with the control group (FIG. 7) ([2]; 12 or 24 μg/ml in combination with 8 Gy, 2 h pre-incubation, 70 h after radiation): significantly higher
- effect on the apoptosis of cancer cells (FIG. 7) ([2]; 12 or 24 μg/ml without exposure of radiation): no effect
- effect in inhibition of the growth of cancer cells, compared with radiation therapy alone (FIG. 7) ([2]; Schisandrin B in combination of radiation therapy): enhanced effect
